The Deep4Chem optical property database
Several values for one entry are separate records, joined by “and”; a condition that tells them apart may be missing. Equal values may be shown once.

Assay: solvent given as SMILES

Q: Which results are given for `CC1(C)c2ccccc2N(c2ccc(-c3cc(-c4ccccc4)nc(-c4ccccc4)n3)cc2)c2ccccc21`?
A: fluorescence lifetime (in Cc1ccccc1): 4.23 ns; fluorescence lifetime (in ClCCl): 25 ns

Q: With `CC(C)(C)c1ccc2c(c1)c1cc(C(C)(C)C)ccc1n2-c1ccc(C#Cc2ccc(C#Cc3ccc(C=C(C#N)C#N)cc3)cc2)cc1` as the compound, how does the fluorescence lifetime (in ClCCl) read?
A: 3.7 ns

Q: For `CCN(CC)c1ccc2cc(-c3ccc(-c4ccc(-c5cc6ccccc6oc5=O)cc4)cc3)c(=O)oc2c1`, which fluorescence lifetime (in ClCCl) is on record?
A: 9.88 ns

Q: What does the source list for `CC(C)[Si]1(C(C)C)c2cc(N(C)C)ccc2-c2ccc(C(F)(F)F)cc21`?
A: fluorescence lifetime (in C1CCCCC1): 3.3 ns; fluorescence lifetime (in ClCCl): 2.5 ns

Q: Which fluorescence lifetime (in Cc1ccccc1) does the source give for `CCCCOC(=O)c1cc(Cl)c2c3c(Cl)cc4c5c(cc(Cl)c(c6c(Cl)cc(C(=O)OCCCC)c1c26)c53)C(=O)N(c1c(C(C)C)cccc1C(C)C)C4=O` here?
A: 4.86 ns

Q: For `Cc1csc2[n+]1[B-](F)(F)OC(c1ccc(N(C)C)cc1)=N2`, which fluorescence lifetime (in C1CCOC1) is on record?
A: 2.24 ns

Q: Which fluorescence lifetime (in O) does the source give for `O=C(O)CCCCCn1c2ccc(Br)cc2c(=O)c2cc(Br)ccc21` here?
A: 6 ns

Q: Which fluorescence lifetime (in Cc1ccccc1) does the source give for `N#Cc1c(-n2c3ccc(I)cc3c3cc(I)ccc32)c(-n2c3ccc(I)cc3c3cc(I)ccc32)c(C#N)c(-n2c3ccc(I)cc3c3cc(I)ccc32)c1-n1c2ccc(I)cc2c2cc(I)ccc21` here?
A: 0.1 ns

Q: What does the source list for `CCNc1cc2oc3c/c(=[NH+]\CC)c(C)cc-3c(-c3ccccc3C(=O)OCC)c2cc1C`?
A: fluorescence lifetime (in CC#N): 4.18 ns; fluorescence lifetime (in CC(C)O): 3.96 ns; fluorescence lifetime (in CCCCCCCCO): 3.83 ns; fluorescence lifetime (in CCCCCCO): 3.88 ns; fluorescence lifetime (in CCCCO): 3.89 ns; fluorescence lifetime (in CCCO): 3.95 ns; fluorescence lifetime (in CCO): 3.96 ns; fluorescence lifetime (in CN(C)C=O): 3.86 ns; fluorescence lifetime (in CO): 3.7 ns; fluorescence lifetime (in O): 4.22 ns; fluorescence lifetime (in [2H]O[2H]): 4.36 ns

Q: For `CC[n+]1nc2cc3c(cc2c2cc(C)ccc21)N(C)CCC3`, which fluorescence lifetime (in O) is on record?
A: 4.3 ns

Q: With `COC(=O)C(NC(=O)OC(C)(C)C)c1ccc2oc(-c3ccc(O)cc3O)nc2c1` (centres undefined) as the compound, how does the fluorescence lifetime (in CC1CCCCC1) read?
A: 0.3 ns

Q: What about the fluorescence lifetime (in CC#N) of the same compound?
A: 1.44 ns

Q: And the fluorescence lifetime (in CO)?
A: 1.33 ns

Q: Which results are given for `COc1ccc(C#Cc2c3ccccc3c3n2[B-](F)(F)[N+]2=C(C)C=C(C)C2=C3)cc1`?
A: fluorescence lifetime (in CCCCCC): 5.2 ns; fluorescence lifetime (in CCCCCCCCO): 4.65 ns; fluorescence lifetime (in CCOC(C)=O): 4.93 ns; fluorescence lifetime (in CN(C)C=O): 4.41 ns

Q: Which fluorescence lifetime (in C1CCOC1) does the source give for `c1ccc(-c2cnc3nn4ccccc4c3n2)cc1` here?
A: 5.3 ns

Q: Which fluorescence lifetime (in ClCCl) does the source give for `CC(C)(C)c1ccc(-c2nc3c4ccccc4c4ccccc4c3n2-c2ccc(C(C)(C)C)cc2)cc1` here?
A: 6.4 ns

Q: With `CC1=C2c3ccccc3C(c3[nH]c(C)cc3C)=[N+]2[B-](F)(F)n2c(C)cc(C)c21` as the compound, how does the fluorescence lifetime (in ClCCl) read?
A: 7.3 ns

Q: With `CCOC(=O)c1ccc2c(c1)[se]c1c3ccc(C(=O)OCC)cc3n(C)c21` as the compound, how does the fluorescence lifetime (in CCCO) read?
A: 0.175 ns

Q: With `Cc1c(C)c(B(c2c(C)c(C)c(C#N)c(C)c2C)c2c(C)c(C)c(N3c4ccccc4Oc4ccccc43)c(C)c2C)c(C)c(C)c1C#N` as the compound, how does the fluorescence lifetime (in c1ccc([Si](c2ccccc2)(c2ccc(-n3c4ccccc4c4ccccc43)cc2)c2ccc(-n3c4ccccc4c4ccccc43)cc2)cc1) read?
A: 32 ns

Q: With `CC1=CC(C)=[N+]2C1=Cc1c3ccccc3c(C#Cc3ccccc3)n1[B-]2(F)F` as the compound, how does the fluorescence lifetime (in CCCCCC) read?
A: 5.41 ns

Q: And the fluorescence lifetime (in CCCCCCCCO)?
A: 5.13 ns

Q: What about the fluorescence lifetime (in CCOC(C)=O) of the same compound?
A: 5.3 ns

Q: And the fluorescence lifetime (in CN(C)C=O)?
A: 4.82 ns

Q: Which fluorescence lifetime (in C1COCCO1) does the source give for `CC1(C)c2ccccc2N(c2ccc(S(=O)(=O)c3ccc(N4c5ccccc5C(C)(C)c5ccccc54)cc3)cc2)c2ccccc21` here?
A: 21 ns

Q: And the fluorescence lifetime (in CC(C)=O)?
A: 20 ns

Q: What about the fluorescence lifetime (in Cc1ccccc1) of the same compound?
A: 20 ns

Q: And the fluorescence lifetime (in ClC(Cl)Cl)?
A: 21 ns

Q: What about the fluorescence lifetime (in c1cc(-n2c3ccccc3c3ccccc32)cc(-n2c3ccccc3c3ccccc32)c1) of the same compound?
A: 21 ns

Q: For `Cc1cc(-c2ccccc2C)cc(C)[o+]1`, which fluorescence lifetime (in CC#N) is on record?
A: 12.2 ns

Q: And the fluorescence lifetime (in ClCCl)?
A: 4.6 ns

Q: For `Cc1ccc(-c2ccc(/C=C/c3cccn3C)cn2)nc1`, which fluorescence lifetime (in C1COCCO1) is on record?
A: 0.59 ns

Q: What about the fluorescence lifetime (in CC#N) of the same compound?
A: 0.51 ns

Q: And the fluorescence lifetime (in CCCCCC)?
A: 0.86 ns

Q: And the fluorescence lifetime (in CCO)?
A: 0.92 ns

Q: What about the fluorescence lifetime (in CN(C)C=O) of the same compound?
A: 0.65 ns

Q: What about the fluorescence lifetime (in CO) of the same compound?
A: 1 ns

Q: What about the fluorescence lifetime (in CS(C)=O) of the same compound?
A: 0.64 ns

Q: And the fluorescence lifetime (in Cc1ccccc1)?
A: 0.56 ns

Q: And the fluorescence lifetime (in ClC(Cl)Cl)?
A: 0.62 ns

Q: And the fluorescence lifetime (in c1ccccc1)?
A: 0.51 ns

Q: Which fluorescence lifetime (in ClCCl) does the source give for `CC(C)c1cccc(C(C)C)c1N1C(=O)c2cccc3c(Oc4ccc(C(C)(C)c5ccccc5)cc4)ccc(c23)C1=O` here?
A: 1.2 ns

Q: Which fluorescence lifetime (in CC#N) does the source give for `O=C(O)c1ccc(-c2nc(-c3ccccc3)c3ccccn23)cc1` here?
A: 1.5 ns

Q: With `CC(C)(C)c1cc2cc(N(c3ccccc3)c3ccccc3)c3cc(C(C)(C)C)cc4cc(N(c5ccccc5)c5ccccc5)c(c1)c2c43` as the compound, how does the fluorescence lifetime (in CCCCCC) read?
A: 4.6 ns

Q: With `COc1ccc(C#Cc2c3cc4cc(C)sc4cc3c(C#Cc3ccc(OC)cc3)c3cc4cc(C)sc4cc23)cc1` as the compound, how does the fluorescence lifetime (in ClCCl) read?
A: 7.7 ns

Q: What does the source list for `CCCCCCC(CCCCCC)N1C(=O)c2cccc3c(-c4ccc(C#N)cc4)ccc(c23)C1=O`?
A: fluorescence lifetime (in CCCCCC): 1.02 ns; fluorescence lifetime (in CCCCCCCCCCCCCC): 0.994 ns; fluorescence lifetime (in CCCCCCCCCCCO): 2.12 ns; fluorescence lifetime (in CCCCO): 2.21 ns; fluorescence lifetime (in CN(C)C=O): 2.15 ns; fluorescence lifetime (in Cc1ccccc1): 1.16 ns; fluorescence lifetime (in ClC(Cl)Cl): 1.34 ns

Q: Which fluorescence lifetime (in CC#N) does the source give for `Cc1cc2c(ccc3c[n+](C)c(C)cc32)c[n+]1C` here?
A: 6.1 ns

Q: With `N#Cc1ccc(/C=C/c2ccc(C=C(c3ccccc3)c3ccccc3)cc2)cc1` as the compound, how does the fluorescence lifetime (in C1CCOC1) read?
A: 0.5 ns

Q: What does the source list for `[C-]#[N+]c1ccc(-c2ccc(N)cc2)cc1`?
A: fluorescence lifetime (in CC#N): 2 ns; fluorescence lifetime (in CCOC(C)=O): 1.7 ns

Q: For `[NH3+]c1ccc2ccc([O-])cc2c1`, which fluorescence lifetime (in O) is on record?
A: 13.5 ns

Q: For `CCCCc1cc(-c2cccc(COC)c2)oc1-c1cccc(-c2cc(CCCC)c(-c3cccc(-c4oc(-c5cccc(-c6oc(-c7cccc(COC)c7)cc6CCCC)c5)cc4CCCC)c3)o2)c1`, which fluorescence lifetime (in ClC(Cl)Cl) is on record?
A: 1.35 ns

Q: With `COCCOCCOCCOCC(COCCOCCOCCOC)Oc1cc(/C=C/c2ccc(/C=C(\C#N)C(=O)c3ccccc3)cc2)c(OC(COCCOCCOCCOC)COCCOCCOCCOC)cc1/C=C/c1ccc(/C=C(\C#N)C(=O)c2ccccc2)cc1` as the compound, how does the fluorescence lifetime (in ClCCl) read?
A: 1 ns

Q: For `CC(C)(C)c1ccc(-c2nc3c4ccc(-c5ccc6ccccc6c5)cc4c4cc(-c5ccc6ccccc6c5)ccc4c3n2-c2ccc(C(C)(C)C)cc2)cc1`, which fluorescence lifetime (in ClCCl) is on record?
A: 6.6 ns

Q: Which fluorescence lifetime (in C1CCCCC1) does the source give for `CN(C)c1ccc2nc(-c3ccc(C=O)cc3)sc2c1` here?
A: 2.5 ns

Q: With `Nc1nc2c([nH]c(=O)n2[C@H]2C[C@H](O)[C@@H](CO)O2)c(=O)[nH]1` as the compound, how does the fluorescence lifetime (in O) read?
A: 0.0008 ns

Q: With `COc1ccc(C2=CC(c3ccc4cc(N(C)C)ccc4c3)=[O+][B-](F)(F)O2)cc1` as the compound, how does the fluorescence lifetime (in C1CCOC1) read?
A: 2.68 ns

Q: And the fluorescence lifetime (in CC#N)?
A: 0.42 ns

Q: What about the fluorescence lifetime (in CC(C)=O) of the same compound?
A: 0.72 ns

Q: And the fluorescence lifetime (in CS(C)=O)?
A: 0.54 ns

Q: What about the fluorescence lifetime (in Cc1ccccc1) of the same compound?
A: 2.96 ns

Q: And the fluorescence lifetime (in ClC(Cl)Cl)?
A: 3.54 ns

Q: And the fluorescence lifetime (in ClCCl)?
A: 2.71 ns

Q: With `Nc1ccc(N2C(=O)c3ccc4c5ccc6c7c(ccc(c8ccc(c3c48)C2=O)c75)C(=O)N(c2ccc(N)cc2)C6=O)cc1` as the compound, how does the fluorescence lifetime (in CN(C)C=O) read?
A: 3.8 ns

Q: Which fluorescence lifetime (in CC#N) does the source give for `c1ccc(N2c3ccccc3Sc3cc(-c4cccc5nc6ccccc6cc45)ccc32)cc1` here?
A: 7.58 ns

Q: And the fluorescence lifetime (in CCCCCC)?
A: 2.05 ns

Q: And the fluorescence lifetime (in CCOCC)?
A: 3.96 ns

Q: And the fluorescence lifetime (in ClCCl)?
A: 3.32 ns

Q: Which fluorescence lifetime (in Cc1ccccc1) does the source give for `CCc1ccc(/C=C/c2ccc(-c3nnc(-c4ccc(-c5cc6ccccc6s5)cc4)o3)cc2)cc1` here?
A: 0.56 ns

Q: And the fluorescence lifetime (in ClC(Cl)Cl)?
A: 0.61 ns

Q: With `CCCCC(CC)Cn1c2cc(-c3ccc(N(c4ccccc4)c4ccccc4)cc3)c(C#N)cc2c2cc(C#N)c(-c3ccc(N(c4ccccc4)c4ccccc4)cc3)cc21` (centres undefined) as the compound, how does the fluorescence lifetime (in ClCCl) read?
A: 3.23 ns

Q: Which fluorescence lifetime (in CC#N) does the source give for `CCN(CC)c1ccc2c(-c3ccccc3C(=O)[O-])c3ccc(=[N+](CC)CC)cc-3oc2c1` here?
A: 1.74 ns

Q: What about the fluorescence lifetime (in CC(C)O) of the same compound?
A: 3.26 ns

Q: What about the fluorescence lifetime (in CCCCCCCCO) of the same compound?
A: 3.42 ns

Q: What about the fluorescence lifetime (in CCCCCCO) of the same compound?
A: 3.41 ns

Q: What about the fluorescence lifetime (in CCCCO) of the same compound?
A: 3.37 ns

Q: And the fluorescence lifetime (in CCCO)?
A: 3.27 ns

Q: And the fluorescence lifetime (in CCO)?
A: 2.96 ns

Q: And the fluorescence lifetime (in CN(C)C=O)?
A: 2.33 ns

Q: What about the fluorescence lifetime (in CO) of the same compound?
A: 2.5 ns and 2.46 ns

Q: What about the fluorescence lifetime (in O) of the same compound?
A: 1.74 ns and 1.75 ns

Q: And the fluorescence lifetime (in [2H]O[2H])?
A: 1.84 ns

Q: For `COc1cc(OC)c(C2=C3C(C)=CC(C)=[N+]3[B-](F)(F)n3c(C)cc(C)c32)c(OC)c1`, which fluorescence lifetime (in C1CCOC1) is on record?
A: 5.7 ns

Q: What about the fluorescence lifetime (in CCCCCC) of the same compound?
A: 6.35 ns
